ChEMBL document CHEMBL5346927, “Discovery of a novel 1H-pyrazole- [3,4-b] pyridine-based lysine demethylase 5B inhibitor with potential anti-prostate cancer activity that perturbs the phosphoinositide 3-kinase/AKT pathway” (Eur J Med Chem, 2023)
Activity calls are given as the source filed them. The rule behind the calls is not given here.

Experiments:
[1] = biological target: T1, Lysine-specific demethylase 5B (Homo sapiens, UniProt Q9UGL1); assay: Inhibition of KDM5B (unknown origin)
PC-3 [2] = assay: Antitumor activity against human PC-3 cells assessed as inhibition of cell proliferation incubated for 72 hrs by MTT assay; format: functional, cell-based; details: PC-3, 72 h
MCF7 = assay: Antitumor activity against human MCF7 cells assessed as inhibition of cell proliferation incubated for 72 hrs by MTT assay; format: functional, cell-based; details: MCF7, 72 h
HepG2 = assay: Antitumor activity against human HepG2 cells assessed as inhibition of cell proliferation incubated for 72 hrs by MTT assay; format: functional, cell-based; details: HepG2, 72 h
MGC-803 = assay: Antitumor activity against human MGC-803 cells assessed as inhibition of cell proliferation incubated for 72 hrs by MTT assay; format: functional, cell-based; details: MGC-803, 72 h
LNCaP [3] = assay: Antiproliferative activity against human LNCaP cells assessed as inhibition of cell proliferation incubated for 72 hrs by MTT assay; format: functional, cell-based
[4] = Cytotoxicity against human WPMY-1 cells incubated for 72 hrs by MTT assay; format: toxicity, cell-based
[5] = MRT (0 to t) in ICR mouse at 25 mg/kg, IG measured at 0.083 to 24 hrs by LC-MS analysis; format: ADME, organism-based; details: in vivo, po, time 0.083-24 hrs
[6] = Tmax in ICR mouse at 25 mg/kg, IG measured at 0.083 to 24 hrs by LC-MS analysis; format: ADME, organism-based; details: in vivo, po, time 0.083-24 hrs
[7] = Half-life in ICR mouse at 25 mg/kg, IG measured at 0.083 to 24 hrs by LC-MS analysis; format: ADME, organism-based; details: in vivo, po, time 0.083-24 hrs
[8] = biological target: T1, Lysine-specific demethylase 5B; assay: Inhibition of KDM5B in human PC-3 cells assessed as H3K4me2 accumulation incubated for 72 hrs by Western blot analysis; format: cell-based
[9] = biological target: T1, Lysine-specific demethylase 5B; assay: Inhibition of KDM5B in human PC-3 cells assessed as H3K4me3 accumulation incubated for 72 hrs by Western blot analysis; format: cell-based
LNCaP [10] = assay: Inhibition of colony formation in human LNCaP cells incubated for 72 hrs by crystal violet staining based microplate reader analysis; format: functional, cell-based
PC-3 [11] = assay: Induction of cell cycle arrest in human PC-3 cells assessed as increase in G2/M phase cell ratio at 2.5 uM incubated for 24 hrs by PI/RNase A staining based flow cytometric analysis (reference value: 16.07%); format: functional
PC-3 [12] = assay: Induction of apoptosis in human PC-3 cells assessed as viable cells at 2.5 uM incubated for 72 hrs by Annexin V-FITC/PI staining based flow cytometric analysis (reference value: 90.93%); format: functional; details: read-out: Activity
PC-3 [13] = assay: Induction of apoptosis in human PC-3 cells assessed as late apoptotic cells at 2.5 uM incubated for 72 hrs by Annexin V-FITC/PI staining based flow cytometric analysis (reference value: 1.05%); format: functional
PC-3 [14] = assay: Induction of apoptosis in human PC-3 cells assessed as late apoptotic cells at 5 uM incubated for 72 hrs by Annexin V-FITC/PI staining based flow cytometric analysis (reference value: 1.05%); format: functional
[15] = Half-life in ICR mouse at 5 mg/kg, iv measured at 0.083 to 24 hrs by LC-MS analysis; format: ADME, organism-based; details: in vivo, time 0.083-24 hrs
[16] = Tmax in ICR mouse at 5 mg/kg, iv measured at 0.083 to 24 hrs by LC-MS analysis; format: ADME, organism-based; details: in vivo, time 0.083-24 hrs
[17] = Cmax in ICR mouse at 5 mg/kg, iv measured at 0.083 to 24 hrs by LC-MS analysis; format: ADME, organism-based; design: time upper 24 hrs, time lower 0.083 hrs, dose 5 mg/kg, route iv; details: in vivo
[18] = AUC (0 to t) in ICR mouse at 5 mg/kg, iv measured at 0.083 to 24 hrs by LC-MS analysis; format: ADME, organism-based; design: time lower 0.083 hrs, dose 5 mg/kg, time upper 24 hrs, route iv; details: in vivo
[19] = Apparent volume of distribution in ICR mouse at 5 mg/kg, iv measured at 0.083 to 24 hrs by LC-MS analysis; format: ADME, organism-based; details: in vivo, time 0.083-24 hrs
[20] = Clearance in ICR mouse at 5 mg/kg, iv measured at 0.083 to 24 hrs by LC-MS analysis; format: ADME, organism-based; details: in vivo, time 0.083-24 hrs
[21] = Acute toxicity in Kunming mouse assessed as effect on weight at 2 g/Kg, IG measured after 2 weeks; details: in vivo, po, 2000 mg/kg, 336 h
[22] = Acute toxicity in Kunming mouse assessed as effect on behavioral abnormalities at 2 g/Kg, IG measured after 2 weeks; details: in vivo, po, 2000 mg/kg, 336 h
[23] = Acute toxicity in Kunming mouse assessed as effect on lung at 2 g/Kg, IG measured after 2 weeks by H&E staining based analysis; format: tissue-based; details: in vivo, po, 2000 mg/kg, 336 h
[24] = Acute toxicity in Kunming mouse assessed as effect on kidney at 2 g/Kg, IG measured after 2 weeks by H&E staining based analysis; format: tissue-based; details: in vivo, po, 2000 mg/kg, 336 h
PC-3 [25] = assay: Antitumor activity against human PC-3 cells xenografted in BALB/C nude mice assessed as decrease in tumor volume at 25 to 50 mg/kg, IG administered for 25 days; format: functional, organism-based; details: dose 25-50 mg/kg, time 25.0 day
PC-3 [26] = assay: Antitumor activity against human PC-3 cells xenografted in BALB/C nude mice assessed as decrease in tumor volume at 50 mg/kg, IG measured after 13 days; format: functional, organism-based; details: time 13.0 day
PC-3 [27] = assay: Antitumor activity against human PC-3 cells xenografted in BALB/C nude mice assessed as decrease in tumor weight at 25 to 50 mg/kg, IG administered for 25 days; format: functional, organism-based; details: dose 25-50 mg/kg, time 25.0 day
[28] = Toxicity in BALB/C nude mouse xenografted with human PC-3 cells assessed as effect on body weight at 25 to 50 mg/kg, IG administered for 25 days; format: organism-based; details: in vivo, po, 600 h, dose 25-50 mg/kg, time 25 day
[29] = Toxicity in BALB/C nude mouse xenografted with human PC-3 cells assessed as spleen damage at 25 to 50 mg/kg, IG administered for 25 days by H&E staining based analysis; format: organism-based; details: in vivo, po, 600 h, dose 25-50 mg/kg, time 25 day
[30] = Toxicity in BALB/C nude mouse xenografted with human PC-3 cells assessed as reduction in prostate gland cells at 25 mg/kg, IG administered for 25 days by H&E staining based analysis; format: organism-based; details: in vivo, po, 600 h, time 25 day
[31] = Toxicity in BALB/C nude mouse xenografted with human PC-3 cells assessed as prostate gland damage at 25 to 50 mg/kg, IG administered for 25 days by H&E staining based analysis; format: organism-based; details: in vivo, po, 600 h, dose 25-50 mg/kg, time 25 day
PC-3 [32] = assay: Inhibition of PI3K/AKT pathway in human PC-3 cells assessed as decrease in P110alpha level at 10 uM by Western blot analysis; format: cell-based
PC-3 [33] = assay: Inhibition of PI3K/AKT pathway in human PC-3 cells assessed as decrease in P110alpha level at 20 uM by Western blot analysis relative to control; format: cell-based
PC-3 [34] = assay: Inhibition of PI3K/AKT pathway in human PC-3 cells assessed as decrease in P85 level at 2.5 to 5 uM by Western blot analysis; format: cell-based; details: dose 2.5-5 µM
PC-3 [35] = assay: Inhibition of PI3K/AKT pathway in human PC-3 cells assessed as decrease in P85 level at 10 to 20 uM by Western blot analysis; format: cell-based; details: dose 10-20 µM
PC-3 [36] = assay: Inhibition of PI3K/AKT pathway in human PC-3 cells assessed as decrease in AKT phosphorylation at Ser473 residue at 20 uM by Western blot analysis relative to control; format: cell-based

T1 sequence (Q9UGL1 whole entry): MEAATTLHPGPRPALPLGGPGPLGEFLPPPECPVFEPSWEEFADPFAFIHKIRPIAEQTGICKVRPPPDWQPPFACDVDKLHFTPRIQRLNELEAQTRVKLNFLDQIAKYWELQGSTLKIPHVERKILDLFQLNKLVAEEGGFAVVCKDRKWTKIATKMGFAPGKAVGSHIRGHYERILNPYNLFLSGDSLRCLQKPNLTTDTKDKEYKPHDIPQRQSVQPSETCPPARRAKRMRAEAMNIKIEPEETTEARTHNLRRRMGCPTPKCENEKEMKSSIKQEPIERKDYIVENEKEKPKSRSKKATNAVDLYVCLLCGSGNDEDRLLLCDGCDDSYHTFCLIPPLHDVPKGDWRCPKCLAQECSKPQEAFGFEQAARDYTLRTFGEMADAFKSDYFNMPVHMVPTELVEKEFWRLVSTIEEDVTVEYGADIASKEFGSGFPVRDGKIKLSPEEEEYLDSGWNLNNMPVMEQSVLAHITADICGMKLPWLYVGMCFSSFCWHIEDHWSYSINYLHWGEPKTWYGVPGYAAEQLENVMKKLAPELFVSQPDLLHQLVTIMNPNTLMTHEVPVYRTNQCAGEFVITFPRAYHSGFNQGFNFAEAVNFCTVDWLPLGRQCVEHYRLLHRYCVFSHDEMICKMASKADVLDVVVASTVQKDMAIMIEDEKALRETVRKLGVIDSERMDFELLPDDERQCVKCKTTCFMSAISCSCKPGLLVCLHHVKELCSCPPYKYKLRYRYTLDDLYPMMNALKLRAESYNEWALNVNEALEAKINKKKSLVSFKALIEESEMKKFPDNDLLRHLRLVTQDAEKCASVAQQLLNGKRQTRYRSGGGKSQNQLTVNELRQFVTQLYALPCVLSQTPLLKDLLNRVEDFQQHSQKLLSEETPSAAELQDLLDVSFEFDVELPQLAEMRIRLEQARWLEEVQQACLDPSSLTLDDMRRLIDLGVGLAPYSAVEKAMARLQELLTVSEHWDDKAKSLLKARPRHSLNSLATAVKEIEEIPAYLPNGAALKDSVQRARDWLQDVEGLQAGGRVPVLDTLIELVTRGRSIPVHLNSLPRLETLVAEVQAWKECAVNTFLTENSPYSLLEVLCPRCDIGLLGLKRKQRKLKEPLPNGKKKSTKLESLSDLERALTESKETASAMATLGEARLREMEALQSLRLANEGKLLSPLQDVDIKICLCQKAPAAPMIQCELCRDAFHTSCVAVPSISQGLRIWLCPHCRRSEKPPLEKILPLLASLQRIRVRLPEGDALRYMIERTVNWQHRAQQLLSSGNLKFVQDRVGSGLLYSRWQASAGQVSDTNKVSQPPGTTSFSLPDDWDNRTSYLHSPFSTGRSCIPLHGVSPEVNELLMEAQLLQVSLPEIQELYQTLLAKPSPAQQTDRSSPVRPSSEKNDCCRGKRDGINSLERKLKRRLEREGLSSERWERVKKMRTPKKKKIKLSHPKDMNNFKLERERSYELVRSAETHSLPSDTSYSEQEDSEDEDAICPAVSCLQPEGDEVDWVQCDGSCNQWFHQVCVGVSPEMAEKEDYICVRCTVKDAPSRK

`CN1CCN(CCNC(=O)c2cc(-c3ccc4ccccc4c3)nc3c2cnn3-c2ccccc2)CC1` showed an IC50 [1] of 0.025 µM, an IC50 (PC-3 [2]) of 2.18 µM and an IC50 (MCF7) of 6.77 µM. The IC50 (HepG2) was 5.76 µM, the IC50 (MGC-803) was 6.09 µM and the IC50 (LNCaP [3]) was 4.34 µM. The IC50 at 72 h [4] was 27.9 µM, the MRT last [5] was 6.9 h and the Tmax [6] was 6 h. For the same compound, the half-life [7] was 5.3 h, the inhibition [8] was “Dose-Dependent Effect” and the inhibition [9] was “Dose-Dependent Effect”. For the same compound, the inhibition (LNCaP [10]) was “Dose-Dependent Effect”, the Activity (PC-3 [11]) was 18.17% and the viability at 2.5 µM (PC-3 [12]) was 75%. The Activity (PC-3 [13]) was 5.94%, the Activity (PC-3 [14]) was 7.54% and the t1/2 [15] was 2.95 h. It also gave a Tmax [16] of 4.98 min, a Cmax [17] of 551.67 ng/mL and an AUCt [18] of 44437.67 ng·h/mL. For the same compound, the Vz [19] was 19.51 L/kg, the CL [20] was 8.17 mL/min/kg and the Activity [21] was “Non-Toxic”. For the same compound, the Activity [22] was “Non-Toxic”, the Activity [23] was “Non-Toxic” and the Activity [24] was “Non-Toxic”. For the same compound, the Activity (PC-3 [25]) was “Active”, the Activity (PC-3 [26]) was “Active” and the Activity (PC-3 [27]) was “Active”. The Activity [28] was “Non-Toxic”, the Activity [29] was “Non-Toxic” and the Activity [30] was “Non-Toxic”. The Activity [31] was “Non-Toxic”, the inhibition (PC-3 [32]) was “Active” and the inhibition (PC-3 [33]) was 80%. For the same compound, the inhibition (PC-3 [34]) was “inactive”, the inhibition (PC-3 [35]) was “Active” and the inhibition (PC-3 [36]) was 40%.
